Experimental data published in patent US10011614B2, “Bis-β-carboline compound and preparation method, pharmaceutical composition and use thereof” (XINJIANG HUASHIDAN PHARMACEUTICAL RESEARCH CO., LTD., priority 2012, dated 2018).

Columns and labels:
[1] = test system: Kunming mice; assay: Acute toxicity test in mice (LD50); conditions: Kunming mice, single intraperitoneal administration, observed two weeks, Bliss method
Description: (§1) Solvent: 0.9% saline and 0.5% CMC-Na solution. According to pre-test results, design 5 dose gradient for each sample, dose spacing was 0.8 times. […] Experimental volume is 0.5 ml/20 g mouse. A single intraperitoneal administration is used. Kunming mice were taken and grouped randomly by gender, and intraperitoneal administration according to dose designation was set to observe the immediate reaction after administration in mice. Dead animals were dissected to observe, surviving animals continued to observe two weeks, and the animal deaths in two weeks were recorded. After two weeks, surviving animals were dissected, observed substantial organ lesions, and the organs having substantive lesions were further for histological examination. According to the number of deaths in each group of animals, calculating the median lethal dose (LD50 value) by Bliss method, and further, calculating the maximum tolerated dose (MTD) for less toxic compounds.

[2] = test system: SK-OV-3 (human ovarian cancer cells); assay: Antitumor screening in vitro, MTT assay, SK-OV-3; type: cell-based; conditions: 48 hours, SK-OV-3 cells
Description: (§2) Cell lines: BGC (human gastric cancer cells), A375 (human malignant melanoma cells), 769-P (human renal carcinoma cells), KB (human oral epidermoid carcinoma cells), SK-OV-3 (human ovarian cancer cells), etc, were selected, and the test method was the MTT assay. Cisplatin was as a positive control.
(§3) Specific methods are as follows: cells growing well in the logarithmic phase were seeded in 96-well plates at a concentration of 1×10^4 cells/ml, and then were placed in 37° C., containing 5% CO2 incubator for 24 hours. After discarding the old solution, changed fresh medium, and added sterilization treatment compound, and then cultured for 48 hours. After discarding the culture medium, 20 ul RPMI1640 medium containing 5 mg/ml MTT were added to each well in 96-well plates and cells were cultured for 4 hours. After the supernatant was carefully removed, 100 μl DMSO was added to each well, and the plates were Oscillated about 10 min to dissolve the precipitate, followed by detecting OD value in wavelength 490 nm by the microplate reader. Cell survival rate for each sample concentrations was determined by the following formula: The mean survival rate %=the average OD value of sample group/the average OD value of control group×100%
(§4) Morphological studies by mapping with the logarithm of the drug concentration and the mean survival rate % of each sample to obtain IC50 values for each sample.

[3] = test system: KB (human oral epidermoid carcinoma cells); assay: Antitumor screening in vitro, MTT assay, KB; type: cell-based; conditions: 48 hours
Description: as §2, §3, §4

[4] = test system: 769-P (human renal carcinoma cells); assay: Antitumor screening in vitro, MTT assay, 769-P; type: cell-based; conditions: 48 hours, 769-P cells
Description: as §2, §3, §4

[5] = test system: A375 (human malignant melanoma cells); assay: Antitumor screening in vitro, MTT assay, A375; type: cell-based
Description: as §2, §3, §4

[6] = test system: BGC (human gastric cancer cells); assay: Antitumor screening in vitro, MTT assay, BGC; type: cell-based; conditions: 48 hours
Description: as §2, §3, §4

[7] = in vivo; conditions: both, Kunming, mouse, in vivo, ip
Description: as §1

| IC50 ([2]; Homo sapiens) | IC50 ([3]; Homo sapiens) | IC50 ([4]; Homo sapiens) | IC50 ([5]; Homo sapiens, A-375, 48 hours) | IC50 ([6]; Homo sapiens) | Structure (SMILES) | acute toxicity LD50 [1] | IC50 [2] | IC50 [3] | IC50 [4] | IC50 ([5]; 48 hours) | IC50 [6] | LD50 at 2 weeks [7] |
| --- | --- | --- | --- | --- | --- | --- | --- | --- | --- | --- | --- | --- |
| – | – | – | – | – | COc1cc(-c2nccc3c4ccccc4n(CCCCCCn4c5ccccc5c5ccnc(-c6cc(OC)c(OC)c(OC)c6)c54)c23)cc(OC)c1OC [Compound 19, 1,6-bis[1-(3,4,5-trimethoxy)phenyl-β-carboline-9-yl) hexane] | 200 mg/kg | > 300 µM | > 300 µM | 16.8 µM | 5.9 µM | > 300 µM | – |
| – | – | – | – | – | CCOC(=O)c1cc2c3ccccc3n(CCCCCCn3c4ccccc4c4cc(C(=O)OCC)nc(-c5cc(OC)c(OC)c(OC)c5)c43)c2c(-c2cc(OC)c(OC)c(OC)c2)n1 [Compound 27, 1,6-bis[1-(3,4.5-trimethoxy)phenyl-β-carboline-β-ethyoxylcarbonyl-9-yl]hexane] | 300 mg/kg | – | – | – | – | – | – |
| 11.7 µM | 155 µM | > 300 µM | 35.3 µM | > 300 µM | COc1ccc2c3ccnc(C)c3n(CCCCCCCn3c4cc(OC)ccc4c4ccnc(C)c43)c2c1 [Compound 17, 1,7-bis(7-methoxy-1-methyl-β-carboline-9-yl) heptane] | – | – | – | – | – | – | 200 mg/kg |
| 96.8 µM | > 300 µM | 51.7 µM | > 300 µM | > 300 µM | Cc1nccc2c3ccccc3n(CCCCCCn3c4ccccc4c4ccnc(C)c43)c12 [Compound 9, 1,6-bis(1-methyl-β-carboline-9-yl) hexane] | – | – | – | – | – | – | 200 mg/kg |
| > 300 µM | > 300 µM | 199 µM | > 300 µM | 59.7 µM | c1ccc2c(c1)c1ccncc1n2CCCCn1c2ccccc2c2ccncc21 [Compound 1, 1,4-bis(β-carboline-9-yl) butane] | – | – | – | – | – | – | 200 mg/kg |
| > 300 µM | > 300 µM | > 300 µM | 32.1 µM | > 300 µM | c1ccc2c(c1)c1ccnc(-c3ccsc3)c1n2CCCCCCCCn1c2ccccc2c2ccnc(-c3ccsc3)c21 [Compound 34, 1,8-bis[1-(3-thienyl)-β-carboline-9-yl) octane] | – | – | – | – | – | – | 250 mg/kg |
| 101 µM | 112 µM | 40 µM | 43.3 µM | > 300 µM | Cc1nccc2c3ccc(OC(C)C)cc3n(CCCCCCCCCn3c4cc(OC(C)C)ccc4c4ccnc(C)c43)c12 [Compound 26, 1,9-bis(7-isopropoxy-1-methyl-β-carboline-9-yl) nonane] | – | – | – | – | – | – | 200 mg/kg |
